For orientation: solubility means the dissolved amount per volume that the medium holds.

These results are taken from patent EP2046786B1, “POLYMORPHIC FORMS OF ZIPRASIDONE SULFATES” (KRKA, priority 2006, dated 2008).

A short description of series [1]: Solubility in water (pH 6.8) + 2 % SDS. The class given is physicochemical. To be noted: water + 2 % SDS, aqueous with cosolvent or surfactant or cyclodextrin; water (pH 6.8) + 2 % SDS at room temperature.
Series [2] in a line: Water sorption analysis (0 % RH to 95 % RH, 25°C). To be noted: for release of crystal water at 0 % RH: nitrogen flow rate 200 ml/min; for RH at which water sorption started: two 11-step circles from 0 % RH to 95 % RH. It counts as physicochemical. As for the experimental part: An amount of 20 mg of zipasidone hydrogensulfate dihydrate was exposed to a watersorption analysis (Surface Measurement Systems Ltd., London, UK; two complete 11-step circles from 0 % RH to 95 % RH at the temperature 25°C and nitrogen flow rate 200 ml/min; minimal retention time at the step when dm/dt < 0.002% was 10 minutes and maximal 360 minutes) and compared to the same test of Ziprasidone hydrochloride monohydrate.

SMILES strings stand for the structures. Structures can show the parent of a compound that is named as a salt.

`O.O.O=C1Cc2cc(CCN3CCN(c4nsc5ccccc45)CC3)c(Cl)cc2N1.O=S(=O)(O)O` [Ziprasidone hydrogensulfate dihydrate, 5-[2-[4-(1,2-benzisothiazol-3-yl) -1-piperazinyl]ethyl] -6-chloro-1,3-dihydro-2H-indol-2-one hydrogensulfate dihydrate]: the solubility in series [1] came to 360 µg/mL. In series [2], the “release of crystal water at 0 % RH” value was “does not release crystal water” and the “RH at which water sorption started” value worked out at 50 % RH. Moreover, in series [2] (compared with Ziprasidone hydrochloride salt), the stability to hydratation result is “more stable to hydratation”.

For the molecule `O=C1Cc2cc(CCN3CCN(c4nsc5ccccc45)CC3)c(Cl)cc2N1` [Ziprasidone hydrochloride monohydrate, reference compound], in series [2], the “release of crystal water at 0 % RH” value was “release crystal water” and the “RH at which water sorption started” value was 30 % RH.
